Results as given in US10265286B2, “Sequelae of cardiopulmonary bypass-induced pulmonary injury” (Vanderbilt University, priority 2016, dated 2019).
Read-outs that look alike come from different tables or passages of the source.

Tests used:
Type in all cases: in vivo, human
[1] = Perioperative oral citrulline supplementation in children undergoing congenital cardiac surgery
Experimental: Initial supplementation trials utilized oral citrulline at a dose of 1.9 g/kg before cardiopulmonary bypass, immediately postoperatively and every 12 hours, continuing for 48 hours after surgery.
40 patients with one of the 5 surgical diagnoses identified above were randomized to receive 5 doses of oral citrulline (1.9 grams/kg) vs. placebo. The first dose was administered immediately prior to surgery and the second dose immediately on arrival in the Pediatric ICU after surgery followed every 12 hours×3 doses.

[2] = Intravenous citrulline dose escalation pharmacokinetics in children undergoing congenital cardiac surgery
Experimental: The initial goal was to test the safety and pharmacokinetics of three doses of intravenous citrulline in children undergoing surgical repair of specific congenital heart defects. […] An adverse drop in mean arterial pressure was defined as a greater than a twenty percent decrease from baseline. The baseline postoperative mean arterial blood pressure was calculated as the average of mean arterial blood pressure measurements collected every 5 minutes for the 30 minutes immediately preceding the administration of the postoperative dose or infusion.
The original doses selected were 200, 400, and 600 mg/kg based on data from previous animal studies. The original study design was a 4 arm study using the 3 doses and a placebo control.
After pharmacokinetic modeling, the study design was changed to a bolus dose of 150 mg/kg given in the OR on cardiopulmonary bypass followed 4 hours later by a continuous infusion of 9 mg/kg/hour for 48 hours. Another 9 patients were enrolled. The mean plasma levels of both citrulline and arginine in study patients (+IV citrulline) compared to patients in the observational cohort (−IV citrulline) are depicted in FIGS. 11A-B.
The dose of citrulline was given in the operating room immediately after cannulation and initiation of cardiopulmonary bypass. The overall goal was to achieve a sustained citrulline level of 100 μmol/L or more up to four hours after the initial dose. The four hour time point was selected to allow for the surgical procedure to be completed and the patient to return to the Intensive Care Unit (ICU) postoperatively before further dosing.

[3] = Randomized placebo controlled intravenous citrulline study, 77 patients (plasma citrulline target); conditions: citrulline removed by hemofiltration during CPB
From the text: An intravenous citrulline study conducted was a randomized, placebo controlled, double blind study with the primary clinical outcome being length of mechanical ventilation postoperatively and secondarily the incidence of postoperative pulmonary hypertension between the 2 treatment groups (citrulline vs placebo).
A total of 77 patients were enrolled at Vanderbilt Children's Hospital. Patients were screened based on the surgical schedule. Based on this schedule, patients undergoing one of the 5 planned cardiac surgeries included in this study were screened (patients undergoing the Norwood procedure are now excluded at the recommendation of the DSMB).

[4] = Phase IB study: length of time on inotropes and inotrope score
From the text: The inotrope dose should be monitored post operatively from the time of PCCU admission using the following scoring system:
• =total inotrope score See, e.g., Hoffman, et al. Circulation (2003) 107: 996-1002. A decrease in the inotrope score would be a positive postoperative outcome.
In FIG. 21, data are defined as the time between the start and end times of inotrope use. All missing or 0 total inotrope scores prior to the first measured score are set to 0 and are therefore not considered as being on inotropes. The total inotrope score is considered, which is calculated on the basis of Dopamine, Dobutamine, Milrinone, Epinephrine, Phenylephrine, and Norepinephrine. The length of time on inotropes of patients with no use of inotropes is set to 0 hours (not censored).
The length of time on IV inotropes was documented from the time of first use after surgery until completion of the study medication at 48 hours, i.e. the duration of inotrope use was maximally 48 hours in the current analysis. Patients still receiving inotropes at hour 48 after surgery were censored. The average duration of intravenous (IV) inotrope use was clearly lower in the citrulline group than in the placebo group (Table 12). However, statistical significance for the between-treatment difference was not reached.

[5] = Phase IB study: vasoactive medications
Experimental: The total number of hours on vasoactive medications, including nitroglycerin, nitroprusside and vasopressin, was calculated from the end of surgery until the discontinuation of vasoactive medications or end of study medication (Hour 48), whichever occurred first. Table 14 compares the length of time on vasoactive medications for the citrulline and placebo treatment groups. The overall duration of concomitant vasoactive treatment was shorter in citrulline—than placebo-treated patients, but the difference was not statistically significant. Similar results are shown for the total vasoactive score. However, the patient receiving citrulline did, in fact, show a shorter total duration of vasoactive medication as shown in FIG. 30.

[6] = Phase IB study: duration of ICU stay
Experimental: Duration of ICU stay was analyzed once as the total number of postoperative hours spent in the ICU and once as the total number of postoperative hours that a patient required postoperative mechanical ventilator or continuous intravenous inotrope or vasodilator support. The latter combination of parameters represents another surrogate endpoint for ICU stay.

[7] = Phase IB study: composite of invasive mechanical ventilation or inotrope use
From the text: The cessation of positive pressure ventilation and of inotrope therapy are the two principal determinants of readiness for discharge from the intensive care unit. They were combined as a composite variable to serve as an additional effective surrogate endpoint for the duration of ICU stay.
The composite endpoint comprised the longer of the duration of positive pressure ventilatory support or of inotrope therapy. Since inotrope use was only documented until Hour 48 after surgery (end of study medication treatment), patients with inotrope use continuing until Hour 48 and with mechanical ventilation duration of ≤48 h were censored at this time point. If mechanical ventilation was continued beyond the 48-hour time point, the duration of mechanical ventilation was used in the analysis.

[8] = all i.v. inotropes postoperatively
[9] = end of surgery until discontinuation or Hour 48
[10] = total postoperative hours in ICU

NC(=O)NCCCC(N)C(=O)O (stereo not shown) [Citrulline, 2-amino-5-(carbamoylamino)pentanoic acid]
Plasma citrulline levels ([1]; 5 doses of oral citrulline 1.9 grams/kg, placebo 26): 36 µmol/L | tolerability ([1]; oral 1.9 g/kg before CPB, postoperatively and every 12 hours for 48 hours): well tolerated with no evidence of significant adverse events | peak citrulline level ([2]; 50 mg/kg IV, Patients 6 and 8): approximately 220 μmol/L | peak citrulline level ([2]; 100 mg/kg IV, Patients 9 & 10): 375 µmol/L | four hour levels ([2]; 150 mg/kg IV bolus): 100 µmol/L | peak citrulline level ([2]; 150 mg/kg IV, Patient 13-16): 660 µmol/L | plasma levels achieved ([2]; IV doses 200, 400, and 600 mg/kg): very high | sustained citrulline level suggested by pharmacokinetic modeling ([2]; bolus 150 mg/kg then 4 hours later continuous infusion 9 mg/kg/hr): approximately 100 μmol/L | half-life ([2]; human, plasma, iv, IV bolus doses in children on CPB): ~1.42 h | concentration at 4 hour ([2]; human, plasma, 50 mg/kg IV, Patients 6 and 8, read-out: 4 hour trough level): 40 µM | concentration at 4 hour ([2]; human, plasma, 100 mg/kg IV, Patients 9 & 10, read-out: 4 hour trough): 50 µM | concentration at 4 hour ([2]; human, plasma, 150 mg/kg IV, Patient 13-16, read-out: 4 hour trough): 80 µM | attainment of sustained target plasma citrulline level of 100 μmol/L [3]: did not reach the therapeutic sustained target plasma citrulline level | Total inotrope score, Diff (CI) placebo vs citrulline [4, 8]: 559.8 (−193.5, 1313.2) | Total inotrope score, Median [4, 8]: 650.0 | Total inotrope score, Range [4, 8]: 0.0-2351.0 | Total inotrope score, Mean ± SD ([4]; all i.v. inotropes postoperatively, N = 11): 602.7 ± 727.86 | Length of time on i.v. inotropes, Diff (CI) placebo vs citrulline ([4]; maximally 48 hours): 12.7 (−2.6, 28.1) hours | Length of time on i.v. inotropes, Median ([4]; maximally 48 hours): 16.0 h | Length of time on i.v. inotropes, Range ([4]; maximally 48 hours): 0.0 to 47.0 h | Length of time on i.v. inotropes, Mean ± SD ([4]; maximally 48 hours, N = 11): 13.4 ± 14.78 h | Total vasoactive score, Mean ± SD ([5]; N = 11): 5.5 ± 10.62 | Length of time on vasoactive medications, Diff (CI) placebo vs citrulline [5, 9]: 3.5 (−7.0, 14.1) hours | Length of time on vasoactive medications, Median [5, 9]: 1.0 h | Length of time on vasoactive medications, Range [5, 9]: 0.0 to 17.0 h | Length of time on vasoactive medications, Mean ± SD ([5]; end of surgery until discontinuation or Hour 48, N = 11): 6.3 ± 7.18 h | Total vasoactive score, Diff (CI) placebo vs citrulline ([5]; in vivo): 5.2 (−7.7, 18.0) | Total vasoactive score, Median ([5]; in vivo): 1.1 | Total vasoactive score, Range ([5]; in vivo): 0.0-35.5 | Longest duration of mechanical ventilation, i.v. inotrope use, or vasodilator use, Diff (CI) placebo vs citrulline ([6]; re-intubation excluded): 17.5 (−1.2, 36.2) hours | Longest duration of mechanical ventilation, i.v. inotrope use, or vasodilator use, Mean ± SD ([6]; re-intubation excluded): 14.5 ± 13.99 h | Longest duration of mechanical ventilation, i.v. inotrope use, or vasodilator use, Median ([6]; re-intubation excluded): 15.0 h | Longest duration of mechanical ventilation, i.v. inotrope use, or vasodilator use, Range ([6]; re-intubation excluded): 0.0 to 47.0 h | Longest duration of mechanical ventilation, i.v. inotrope use, or vasodilator use, Diff (CI) placebo vs citrulline ([6]; re-intubation included): 29.9 (−11.0, 70.9) hours | Longest duration of mechanical ventilation, i.v. inotrope use, or vasodilator use, Mean ± SD ([6]; re-intubation included): 14.5 ± 13.99 h | Longest duration of mechanical ventilation, i.v. inotrope use, or vasodilator use, Median ([6]; re-intubation included): 15.0 h | Longest duration of mechanical ventilation, i.v. inotrope use, or vasodilator use, Range ([6]; re-intubation included): 0.0 to 47.0 h | Duration of PICU stay, Diff (CI) placebo vs citrulline [6, 10]: 69.14 (−49.39, 187.67) hours | Duration of PICU stay, Median [6, 10]: 28.52 h | Duration of PICU stay, Range [6, 10]: 20.8 to 72.0 h | Duration of PICU stay, Mean ± SD ([6]; total postoperative hours in ICU, N = 11): 35.94 ± 16.150 h | Composite duration of invasive mechanical ventilation or inotrope use, Diff (CI) placebo vs citrulline ([7]; Re-intubation time excluded): 17.7 (−1.0, 36.4) hours | Composite duration of invasive mechanical ventilation or inotrope use, Mean ± SD ([7]; Re-intubation time excluded): 14.3 ± 14.06 h | Composite duration of invasive mechanical ventilation or inotrope use, Median ([7]; Re-intubation time excluded): 15.0 h | Composite duration of invasive mechanical ventilation or inotrope use, Range ([7]; Re-intubation time excluded): 0.0 to 47.0 h | Composite duration of invasive mechanical ventilation or inotrope use, Diff (CI) placebo vs citrulline ([7]; Re-intubation time included): 30.2 (−10.8, 71.1) hours | Composite duration of invasive mechanical ventilation or inotrope use, Mean ± SD ([7]; Re-intubation time included): 14.3 ± 14.06 h | Composite duration of invasive mechanical ventilation or inotrope use, Median ([7]; Re-intubation time included): 15.0 h | Composite duration of invasive mechanical ventilation or inotrope use, Range ([7]; Re-intubation time included): 0.0 to 47.0 h
